Experimental data as given in US20090060851A1, “USE OF IDEBENONE FOR THE PREPARATION OF A TOPICALLY-APPLIED DEPIGMENTATION COMPOSITION AND CORRESPONDING COMPOSITION” (priority 2005, published 2009).

Experiments:
SK-MEL-28 [1] = assay: Cell number quantitation with violet crystal; assay type: cell-based, human
Experimental: Cells: The study was carried out using a cell line derived from human melanoma, provided by ABAC (Asociación Banco Argentino de Células—Cell Bank of Argentina), with melanin synthesis capability (SK-MEL-28, ATCC origin). […] Study of in vitro compounds: […] After 24 hours have lapsed, the medium was replaced with 990 μl of fresh medium. 10 μl of sterile vehicle (50% propylene glycol, 30% ethanol and 20% distilled water) containing different concentrations of the compounds to be evaluated were added to this fresh medium. […] On the fourth day, the cells were not treated, and the remaining adherent cells were assayed on the fifth day according to the methods described below. The cells were thus continuously exposed to the compounds under study for the 5 days the culture lasted. All the concentrations of the compounds were studied in triplicate, comparing the mean of the 3 wells treated with the compounds with those treated with the vehicle alone. Cell number quantitation with violet crystal: A stain with a violet crystal aqueous solution was used for the purpose of determining the number of cells adhering to the plastic surviving in vitro treatment by means of indirect methods. […] The dishes were stained for 5 minutes at room temperature on a rotary platform, with gentle stirring. Then the excess colorant was decanted by turning the dish over and the entire dish was submerged 4 times in distilled water in a suitable container. After rinsing, the dishes were turned over and allowed to drip on absorbent paper until the excess water was completely removed. […] The plates were finally placed on a rotary agitator for 30 minutes at room temperature. […] In order to determine the fraction of cells surviving treatment at a specific concentration of the experimental agent, the OD590 of the treated wells (average of three measurements) was divided by the OD590 of the wells used with a control vehicle (average of three measurements).

SK-MEL-28 [2] = assay: Melanin content determination (OD400) in SK-MEL cells; assay type: cell-based, human
Experimental: In vitro determinations were performed following the method devised by Dooley et al. (Skin Pharmacol. 1994; 7:188-200) in order to evaluate the capacity of idebenone to inhibit melanogenesis, according to the process described below:
Cells: The study was carried out using a cell line derived from human melanoma, provided by ABAC (Asociación Banco Argentino de Células—Cell Bank of Argentina), with melanin synthesis capability (SK-MEL-28, ATCC origin). The cells were grown in plastic culture bottles or in 24-well plastic dishes in a modified Eagle medium (DMEM) supplemented with 10% fetal bovine serum (FBS) and were maintained at 37° C. in a 5% CO2 atmosphere.
Study of in vitro compounds: SK-MEL cells detached with trypsin were seeded on plastic 24-well dishes (density of 1×10^5 cells per well) and incubated for 24 hours in modified Eagle medium (DMEM) supplemented with 10% fetal bovine serum (FBS) prior to treating with the compound to be evaluated. After 24 hours have lapsed, the medium was replaced with 990 μl of fresh medium. 10 μl of sterile vehicle (50% propylene glycol, 30% ethanol and 20% distilled water) containing different concentrations of the compounds to be evaluated were added to this fresh medium.
Decimal dilutions of each compound in the sterile vehicle were prepared in order to obtain final concentrations of the compound to be studied ranging between 1.000 and 0.01 μg/ml. […]
[…] The cells were thus continuously exposed to the compounds under study for the 5 days the culture lasted. All the concentrations of the compounds were studied in triplicate, comparing the mean of the 3 wells treated with the compounds with those treated with the vehicle alone.
Melanin content determination: The SK-MEL cell melanin content was determined after stirring the culture medium and washing the cells with PBS. The cells were then lysated by means of adding 1 ml of 1N NaOH to each well and repeated manual pipetting. The raw cell extract was analyzed using a spectrophotometer at 400 and 475 nm to determine the melanin and dopaquinone content, respectively. The results were expressed as a percentage of the cell cultures treated with the vehicle.

[3] = Example 9 (similar to Example 6), dilution −2
[4] = Example 9 (similar to Example 6), dilution −3
[5] = Example 9 (similar to Example 6), dilution −4
[6] = Example 9 (similar to Example 6), dilution −5
[7] = Example 9 (similar to Example 6), dilution −6
[8] = Example 9 (similar to Example 6), dilution −7
[9] = Example 9 (similar to Example 6), dilution −8
[10] = dilution −1, treated daily 3 days, assayed day 5
[11] = dilution −2, treated 1 day, evaluated third day
[12] = dilution −2, treated daily 3 days, assayed day 5
[13] = dilution −3, treated 1 day, evaluated third day
[14] = dilution −3, treated daily 3 days, assayed day 5
[15] = dilution −4, treated 1 day, evaluated third day
[16] = dilution −4, treated 2 days, evaluated fourth day
[17] = dilution −4, treated daily 3 days, assayed day 5
[18] = dilution −5, treated 1 day, evaluated third day
[19] = dilution −5, treated 2 days, evaluated fourth day
[20] = dilution −5, treated daily 3 days, assayed day 5
[21] = dilution −6, treated 1 day, evaluated third day
[22] = dilution −6, treated 2 days, evaluated fourth day

Compound: COC1=C(OC)C(=O)C(CCCCCCCCCCO)=C(C)C1=O [idebenone, 6-(10-hydroxydecyl)-2,3-dimethoxy-5-methyl-1,4-benzoquinone]
- Toxicity for cells (SK-MEL-28 [1]; SK-MEL-28, high concentrations): may be toxic for cells
- Percentage of viable cells (SK-MEL-28 [1]; dilution −1, percentage of control vehicle): 52%
- Percentage of viable cells (SK-MEL-28 [1]; dilution −2, percentage of control vehicle): 82%
- Percentage of viable cells (SK-MEL-28 [1]; dilution −3, percentage of control vehicle): 98%
- Percentage of viable cells (SK-MEL-28 [1]; dilution −4, percentage of control vehicle): 100%
- Percentage of viable cells (SK-MEL-28 [1]; dilution −5, percentage of control vehicle): 100%
- OD400 (melanin) (SK-MEL-28 [2]; [3]): 0.01166
- OD400 Percentage (melanin) (SK-MEL-28 [2]; [3]): 71.40%
- OD400 (melanin) (SK-MEL-28 [2]; [4]): 0.01566
- OD400 Percentage (melanin) (SK-MEL-28 [2]; [4]): 95.89%
- OD400 (melanin) (SK-MEL-28 [2]; [5]): 0.01533
- OD400 Percentage (melanin) (SK-MEL-28 [2]; [5]): 93.87%
- OD400 (melanin) (SK-MEL-28 [2]; [6]): 0.01466
- OD400 Percentage (melanin) (SK-MEL-28 [2]; [6]): 89.77%
- OD400 (melanin) (SK-MEL-28 [2]; [7]): 0.009
- OD400 Percentage (melanin) (SK-MEL-28 [2]; [7]): 55.11%
- OD400 (melanin) (SK-MEL-28 [2]; [8]): 0.01166
- OD400 Percentage (melanin) (SK-MEL-28 [2]; [8]): 71.40%
- OD400 (melanin) (SK-MEL-28 [2]; [9]): 0.01166
- OD400 Percentage (melanin) (SK-MEL-28 [2]; [9]): 71.40%
- Melanin synthesis inhibition (SK-MEL-28 [2]; SK-MEL-28, Example 5): inhibits melanin synthesis in a dose-dependent manner
- OD400 (melanin) (SK-MEL-28 [2]; [10]): 0.0156
- OD400 expressed as percentage of control (melanin) (SK-MEL-28 [2]; [10]): 28%
- OD400 (melanin) (SK-MEL-28 [2]; [11]): 0.0040
- OD400 Percentage (melanin) (SK-MEL-28 [2]; [11]): 14.65%
- OD400 (melanin) (SK-MEL-28 [2]; [12]): 0.0140
- OD400 expressed as percentage of control (melanin) (SK-MEL-28 [2]; [12]): 40%
- OD400 (melanin) (SK-MEL-28 [2]; [13]): 0.0133
- OD400 Percentage (melanin) (SK-MEL-28 [2]; [13]): 48.72%
- OD400 (melanin) (SK-MEL-28 [2]; [14]): 0.0123
- OD400 expressed as percentage of control (melanin) (SK-MEL-28 [2]; [14]): 52%
- OD400 (melanin) (SK-MEL-28 [2]; [15]): 0.0243
- OD400 Percentage (melanin) (SK-MEL-28 [2]; [15]): 89.01%
- OD400 (melanin) (SK-MEL-28 [2]; [16]): 0.0613
- OD400 Percentage (melanin) (SK-MEL-28 [2]; [16]): 112.89%
- OD400 (melanin) (SK-MEL-28 [2]; [17]): 0.0096
- OD400 expressed as percentage of control (melanin) (SK-MEL-28 [2]; [17]): 59%
- OD400 (melanin) (SK-MEL-28 [2]; dilution −4, treated for 3 days, evaluated fifth day): 0.0686
- OD400 Percentage (melanin) (SK-MEL-28 [2]; dilution −4, treated for 5 days (heading: 3 days), evaluated fifth day): 77.69%
- OD400 (melanin) (SK-MEL-28 [2]; [18]): 0.0343
- OD400 Percentage (melanin) (SK-MEL-28 [2]; [18]): 125.64%
- OD400 (melanin) (SK-MEL-28 [2]; [19]): 0.0626
- OD400 Percentage (melanin) (SK-MEL-28 [2]; [19]): 115.28%
- OD400 (melanin) (SK-MEL-28 [2]; [20]): 0.0066
- OD400 expressed as percentage of control (melanin) (SK-MEL-28 [2]; [20]): 66%
- OD400 (melanin) (SK-MEL-28 [2]; dilution −5, treated for 3 days, evaluated fifth day): 0.0742
- OD400 Percentage (melanin) (SK-MEL-28 [2]; dilution −5, treated for 5 days (heading: 3 days), evaluated fifth day): 84.03%
- OD400 (melanin) (SK-MEL-28 [2]; [21]): 0.0313
- OD400 Percentage (melanin) (SK-MEL-28 [2]; [21]): 114.65%
- OD400 (melanin) (SK-MEL-28 [2]; [22]): 0.0396
- OD400 Percentage (melanin) (SK-MEL-28 [2]; [22]): 72.92%
- OD400 (melanin) (SK-MEL-28 [2]; dilution −6, treated for 3 days, evaluated fifth day): 0.0801
- OD400 Percentage (melanin) (SK-MEL-28 [2]; dilution −6, treated for 5 days (heading: 3 days), evaluated fifth day): 90.71%
- Melanogenesis inhibition at high dilutions (SK-MEL-28 [2]; −2 to −8 dilutions): preserves its ability to inhibit melanogenesis
